# According to US7186534B1 (The Trustees of Columbia University in the City of New York, priority 1997, dated 2007):
# Where two headings read alike, the source gives them in different places.
# What was measured:
# human 9cRDH = target: T1, human 9cRDH (Homo sapiens, UniProt Q92781); assay: Hydroxysteroid oxidation/reduction by human 9cRDH (TLC); type: biochemical; conditions: 37° C., 1.5 h; TLC detection limit approximately 3 pmol/min/mg protein
# T1 sequence (Q92781 1-318): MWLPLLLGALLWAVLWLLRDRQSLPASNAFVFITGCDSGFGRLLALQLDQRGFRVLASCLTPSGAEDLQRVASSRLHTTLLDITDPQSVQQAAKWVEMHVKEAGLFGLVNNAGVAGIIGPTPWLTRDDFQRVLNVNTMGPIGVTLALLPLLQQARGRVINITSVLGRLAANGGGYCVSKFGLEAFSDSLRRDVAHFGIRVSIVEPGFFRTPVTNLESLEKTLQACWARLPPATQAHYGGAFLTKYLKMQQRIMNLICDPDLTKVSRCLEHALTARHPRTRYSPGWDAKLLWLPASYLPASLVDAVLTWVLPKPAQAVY
# Procedure: (§1) To investigate whether human or mouse 9cRDH will catalyze oxidations or reductions of 3α-hydroxy-, 11β-hydroxy- or 17β-hydroxysteroids, these steroids were incubated at 37° C. for 1.5 h in the assay media described above for assessing oxidation/reduction of 9-cis-retinol/9-cis-retinaldehyde. The Hepes NAD^+-containing assay buffer described above was employed to assess hydroxysteroid oxidation and to assess hydroxysteroid reduction the acetate buffer containing NADH (or NADPH) assay buffer (see above) was employed. Immediately following incubation, the steroids were extracted as described above for retinoids. The final hexane extract was evaporated to near dryness and this was spotted onto a silica high performance TLC plate (Whatman Inc., Clifton, N.J.) and developed in hexane/diethyl ether/acetic acid (70:30:1, v/v) or ethyl acetate/chloroform (25:75, v/v). Steroids were visualized by charring after treatment of the TLC plates with an areosol of 10% (v/v) H2SO4 in methanol.
# (§2) Biswas and Russell (32) have reported that rat liver all-trans-retinol dehydrogenase type I also uses several 3α-hydroxy- and 17β-hydroxysteroids as substrates. Chai et al. (18) also reported that hydroxysteroids are substrates for mouse liver cis-retinol dehydrogenase. Since human 9cRDH is approximately 50% identical to the rat liver enzymes and shares approximately 63% homology to mouse liver cis-retinol dehydrogenase, next investigated was whether these steroids might also be substrates for 9cRDH. To test this possibility it was determined whether human or mouse 9cRDH would catalyze oxidation of 5α-androstan-3α, 17β-diol, androsterone, testosterone or dihydrotestosterone to corresponding ketone products. Also investigated was whether human and/or mouse 9cRDH could catalyze reduction of the corresponding ketones. […] It is estimate, based on the lower limits for hydroxysteroid detection by TLC, that it would be possible to detect rates of hydroxysteroid oxidation as low as approximately 3 pmol/min/mg protein. This rate of hydroxysteroid oxidation is at least 2-orders of magnitude lower than Vmax values reported by Biswas and Russell (32) and Chai et al. (18) for oxidation of hydroxysteroids in their studies of enzymes that are able to oxidize both retinol and hydroxysteroids.
# [1] = target: T2, human 9-cis retinol dehydrogenase (9cRDH) (Homo sapiens, UniProt Q92781); assay: Inhibition of recombinant human 9cRDH activity (9-cis-retinol oxidation, CHO cell homogenate, HPLC); type: biochemical
# T2 sequence (Q92781 1-318): T1 sequence (Q92781 1-318)
# mouse 9cRDH [2] = target: T3, mouse 9cRDH (Mus musculus, UniProt O55240); assay: Hydroxysteroid oxidation/reduction by mouse 9cRDH (TLC); type: biochemical; conditions: 37° C., 1.5 h; TLC detection limit approximately 3 pmol/min/mg protein
# T3 sequence (O55240 1-318): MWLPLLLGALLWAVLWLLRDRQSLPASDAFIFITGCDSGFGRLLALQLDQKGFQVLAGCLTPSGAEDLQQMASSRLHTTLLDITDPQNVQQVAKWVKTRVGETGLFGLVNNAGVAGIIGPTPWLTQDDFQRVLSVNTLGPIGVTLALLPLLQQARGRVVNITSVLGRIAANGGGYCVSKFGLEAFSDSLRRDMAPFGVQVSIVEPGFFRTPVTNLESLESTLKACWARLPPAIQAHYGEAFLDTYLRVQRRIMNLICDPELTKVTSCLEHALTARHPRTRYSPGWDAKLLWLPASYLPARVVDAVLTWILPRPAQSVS
# Procedure: as §1, §2
# mouse 9cRDH [3] = target: T3, mouse 9cRDH; assay: Inhibition of recombinant mouse 9cRDH activity (9-cis-retinol oxidation, CHO cell homogenate, HPLC); type: biochemical; conditions: for inhibition of mouse 9cRDH activity (in words): 10 μM 9-cis-retinol
# [4] = Isomerization of retinoic acids in the human 9-cis retinol dehydrogenase assay; type: physicochemical; conditions: for 9-cis isomer present at end of assay / 13-cis isomer present at end of assay / all-trans isomer present at end of assay: 37° C., 15 minutes; for final concentration of 13-cis-retinoic acid formed by isomerization: 10 μM retinoic acid, end of the 15 minute assay
# Procedure: Inhibition Studies of 9cRDH Activity. For the inhibition experiments, each potential inhibitor tested was added to the recombinant 9cRDH in 5 μl of ethanol in the presence of 2 mM NAD^+, 10 mM Hepes, pH 8.0, containing 150 mM KCl, 1 mM EDTA, and 50 μg phosphotidyl choline (assay incubation mixture lacking the retinoid substrate). This mixture was allowed to sit on ice for 5 minutes prior to adding substrate. Upon addition of 10 μM 9-cis-retinol (final concentration), the mixture was incubated for 15 minutes at […] with agitation and extracted as described above for the standard enzyme assay. HPLC Procedures. Stereoisomers of both retinol and retinaldehyde were separated on a 4.6×15-mm Supelco (Belefonte, Pa.) LC-SI Supelcosil™ column using hexane:ethyl acetate:butanol (96.9:3:0.1 v/v) as the mobile phase flowing at 0.8 ml/min. A silica guard column (Supelco) preceded the running column. Retinols and retinaldehydes were detected using a Waters 996 Photodiode array detector at absorbances of 325 and 365 nm, respectively. Retention times for all-trans-, 9-cis-, 11-cis-, and 13-cis-retinols and corresponding retinaldehydes were established using the purified compounds obtained as described above. Quantities of each retinol and retinaldehyde isomer present in extracts were determined by comparisons of the integrated areas under the HPLC peaks with a standard curve constructed relating integrated peak area with known masses of each retinoid isomer. The concentration of each retinoid isomer were determined by UV-visible spectrophotometry using published extinction coefficients for each retinol, retinaldehyde or retinoic acid isomer (25).
# To test this possibility, the degree of isomerization of retinoic acid which occurs under the assay conditions was measured.
# [5] = target: rat liver and human prostate 17β-hydroxysteroid dehydrogenase (identical to retinol dehydrogenase, type I); conditions: cited from earlier work
# visual cycle = conditions: administration to frogs; cited from earlier work
# [6] = target: human alcohol dehydrogenase type IV (Homo sapiens, UniProt P40394); conditions: cited from earlier work
# Chain of human alcohol dehydrogenase type IV (P40394 whole entry): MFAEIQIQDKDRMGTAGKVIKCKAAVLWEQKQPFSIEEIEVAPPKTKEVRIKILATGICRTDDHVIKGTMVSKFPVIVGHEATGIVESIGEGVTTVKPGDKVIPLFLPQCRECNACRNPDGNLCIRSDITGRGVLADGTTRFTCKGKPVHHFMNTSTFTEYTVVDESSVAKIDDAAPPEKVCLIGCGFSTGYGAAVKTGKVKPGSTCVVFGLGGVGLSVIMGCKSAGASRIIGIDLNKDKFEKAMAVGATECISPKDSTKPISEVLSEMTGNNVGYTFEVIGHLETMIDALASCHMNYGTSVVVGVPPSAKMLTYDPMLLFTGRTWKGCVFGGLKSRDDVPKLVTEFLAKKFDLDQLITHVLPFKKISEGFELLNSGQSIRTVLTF
# [7] = animals and humans receiving 13-cis-retinoic acid pharmacologically; cited from earlier work
# [8] = 10 μM steroid, equimolar to substrate, forward (retinol oxidation) or reverse (retinaldehyde reduction) direction
# [9] = 1 μM 13-cis Retinoic Acid at start
smiles,measurement,setting,value
C[C@]12CCC(=O)C[C@@H]1CC[C@@H]1[C@@H]2CC[C@]2(C)[C@@H](O)CC[C@@H]12 [5α-androstan-17βol-3one],catalysis by human 9cRDH of hydroxysteroid oxidation to ketone products (or reduction of the corresponding ketones),human 9cRDH,Neither human nor mouse 9cRDH were found to catalyze
same,inhibition of human 9cRDH activity by hydroxysteroids,[1],none of these hydroxysteroids inhibited
same,catalysis by mouse 9cRDH of hydroxysteroid oxidation to ketone products (or reduction of the corresponding ketones),mouse 9cRDH [2],Neither human nor mouse 9cRDH were found to catalyze
same,inhibition of mouse 9cRDH activity by hydroxysteroids,mouse 9cRDH [3],none of these hydroxysteroids inhibited
"C[C@]12CC[C@@H](O)C[C@@H]1CC[C@@H]1[C@@H]2CC[C@]2(C)[C@@H](O)CC[C@@H]12 [5α-androstane-3α, 17βdiol]",catalysis by human 9cRDH of hydroxysteroid oxidation to ketone products (or reduction of the corresponding ketones),human 9cRDH,Neither human nor mouse 9cRDH were found to catalyze
same,inhibition of human 9cRDH activity by hydroxysteroids,[1]; [8],none of these hydroxysteroids inhibited
same,catalysis by mouse 9cRDH of hydroxysteroid oxidation to ketone products (or reduction of the corresponding ketones),mouse 9cRDH [2],Neither human nor mouse 9cRDH were found to catalyze
same,inhibition of mouse 9cRDH activity by hydroxysteroids,mouse 9cRDH [3]; [8],none of these hydroxysteroids inhibited
"CC1=C(/C=C/C(C)=C\C=C\C(C)=C\C(=O)O)C(C)(C)CCC1 [9-cis Retinoic Acid, 9-cis-retinoic acid]",times (fold) less potent than 13-cis retinoic acid as inhibitor of 9cRDH,[1],18
same,inhibition of human 9cRDH activity (in words),"[1]; 10 μM 9-cis-retinol, listed as 9-cis retinoic acid",potent inhibitors
same,inhibition of human 9cRDH activity (in words),"[1]; 10 μM 9-cis-retinol, listed as 9-cis-retinoic acid",very potent inhibitors
same,inhibition of 9cRDH activity,[1]; 10 μM retinoic acid,81%
same,9-cis isomer present at end of assay,[4]; 10 μM retinoic acid at start,94.7%
same,13-cis isomer present at end of assay,[4]; 10 μM retinoic acid at start,1.1%
same,all-trans isomer present at end of assay,[4]; 10 μM retinoic acid at start,4.2%
same,13-cis isomer present at end of assay,"[4]; 10 μM retinoic acid at start, listed as 9-cis-retinoic acid",~1.1%
same,final concentration of 13-cis-retinoic acid formed by isomerization,[4],approximately 0.1 μM
same,inhibition of mouse 9cRDH activity (in words),mouse 9cRDH [3],very potent inhibitors
same,Ki,[5],0.4 µM
"CC1=C(/C=C/C(C)=C/C=C/C(C)=C\C(=O)O)C(C)(C)CCC1 [13-cis Retinoic Acid, 13-cis-retinoic acid]",block of the visual cycle in vivo (in words),visual cycle,block the visual cycle
same,inhibition of purified human alcohol dehydrogenase type IV (in words),[6],in vitro inhibition
same,concentration at which human 9cRDH is potently inhibited,[1],0.05 µM
same,expected inhibition of h9cRDH activity,[1]; 0.1 μM 13-cis-retinoic acid present for the full 15 minute incubation,40–50%
same,inhibition of human 9cRDH activity (in words),"[1]; 10 μM 9-cis-retinol, listed as 13-cis retinoic acid",potent inhibitors
same,inhibition of human 9cRDH activity (in words),"[1]; 10 μM 9-cis-retinol, listed as 13-cis-retinoic acid",very potent inhibitors
same,13-cis isomer present at end of assay,[4]; [9],98.4%
same,all-trans isomer present at end of assay,[4]; [9],1.6%
same,concentration at which mouse 9cRDH is potently inhibited,mouse 9cRDH [3],0.05 µM
same,inhibition of mouse 9cRDH activity (in words),mouse 9cRDH [3],very potent inhibitors
same,IC50,"mouse 9cRDH [3]; substrate concentration 10 μM, read-out: Inhibitor concentration giving approximately 50% inhibition of m9cRDH activity",~0.15 µM
same,Ki,[5],4 µM
same,concentrations reached in the blood and tissues,[7],≥ 10 µM
"CC1=C(/C=C/C(C)=C/C=C/C(C)=C/C(=O)O)C(C)(C)CCC1 [all-trans Retinoic Acid, all-trans-retinoic acid]",block of the visual cycle in vivo (in words),visual cycle,block the visual cycle
same,times (fold) less potent than 13-cis retinoic acid as inhibitor of 9cRDH,[1],30
same,IC50,"[1]; 10 μM 9-cis-retinol, 15 min, 37° C., CHO cell homogenate, read-out: Estimated inhibitor concentration resulting in 50% inhibition of human 9-cis retinol dehydrogenase activity (ID50)",4.6 µM
same,inhibition of human 9cRDH activity (in words),"[1]; 10 μM 9-cis-retinol, listed as all-trans retinoic acid",potent inhibitors
same,inhibition of human 9cRDH activity (in words),"[1]; 10 μM 9-cis-retinol, listed as all-trans-retinoic acid",very potent inhibitors
same,inhibition at 10 µM,[1]; 10 μM retinoic acid,66%
same,9-cis isomer present at end of assay,[4]; 10 μM retinoic acid at start,0.4%
same,13-cis isomer present at end of assay,[4]; 10 μM retinoic acid at start,0.8%
same,all-trans isomer present at end of assay,[4]; 10 μM retinoic acid at start,98.8%
same,13-cis isomer present at end of assay,"[4]; 10 μM retinoic acid at start, listed as all-trans-retinoic acid",approximately 1%
same,final concentration of 13-cis-retinoic acid formed by isomerization,[4],approximately 0.1 μM
same,inhibition of mouse 9cRDH activity (in words),mouse 9cRDH [3],very potent inhibitors
C[C@]12CC[C@@H](O)C[C@@H]1CC[C@@H]1[C@@H]2CC[C@]2(C)C(=O)CC[C@@H]12 [androsterone],catalysis by human 9cRDH of hydroxysteroid oxidation to ketone products (or reduction of the corresponding ketones),human 9cRDH,Neither human nor mouse 9cRDH were found to catalyze
same,inhibition of human 9cRDH activity by hydroxysteroids,[1],none of these hydroxysteroids inhibited
same,catalysis by mouse 9cRDH of hydroxysteroid oxidation to ketone products (or reduction of the corresponding ketones),mouse 9cRDH [2],Neither human nor mouse 9cRDH were found to catalyze
same,inhibition of mouse 9cRDH activity by hydroxysteroids,mouse 9cRDH [3],none of these hydroxysteroids inhibited
C[C@]12CC[C@H]3[C@@H](CCC4=CC(=O)CC[C@@]43C)[C@@H]1CC[C@@H]2O [testosterone],catalysis by human 9cRDH of hydroxysteroid oxidation to ketone products (or reduction of the corresponding ketones),human 9cRDH,Neither human nor mouse 9cRDH were found to catalyze
same,inhibition of human 9cRDH activity by hydroxysteroids,[1]; [8],none of these hydroxysteroids inhibited
same,catalysis by mouse 9cRDH of hydroxysteroid oxidation to ketone products (or reduction of the corresponding ketones),mouse 9cRDH [2],Neither human nor mouse 9cRDH were found to catalyze
same,inhibition of mouse 9cRDH activity by hydroxysteroids,mouse 9cRDH [3]; [8],none of these hydroxysteroids inhibited
